Test results as given in patent publication US20250171762A1, “THERAPEUTICAL PEPTIDOMIMETIC” (UNIVERSITA' DEGLI STUDI DI ROMA "LA SAPIENZA", priority 2021, published 2025).
Entries after “also recorded” stand apart in the source; their conditions may differ. Like-named read-outs stand apart in the source and are kept apart here.

What was measured:
[1] = Plasma stability: incubation in human plasma, UPLC-MS quantification; type: in vitro ADME; conditions: for remaining at 3 h, 0.2 mM: read-out: peptide available after incubation in plasma
Protocol: Panel B. Time course decay of β32_33, PMT, PMT-8a and PMT-8b incubated up to 72 h with human plasma from four healthy subjects. […] The Y axis indicates the signal intensity of the four peptides. Samples of plasma were obtained from healthy volunteers and immediately used for the analysis. Either β32_33 peptide or PMT for the experiment in panel A, and β32_33 peptide, PMT, PMT-8a or PMT-8b for the experiment in panel B, was incubated in plasma at a final concentration of 0.2 mM, at 37° C., up to 3 h (A) or 72 h (B). At the indicated time points, i.e., T0 and 3 h (A) or T0, 1.5, 3, 6 and 72 h (B), aliquots of 200 μL were treated with 3 volumes of acetonitrile containing 1% formic acid and extracted by a solid phase extraction system to remove proteins and phospholipids. Samples were dried under vacuum, resuspended in 100 μL of 0.1% formic acid containing 5% acetonitrile, and analyzed with a Water Acquity H-Class UPLC system equipped with a single-quadruple mass detector with electrospray ionization source. Samples were separated onto a reverse phase C18 column by performing a gradient with two mobile phases consisting of 0.1% formic acid in water and 0.1% formic acid in acetonitrile at a flow rate of 0.5 mL/min. Quantification was performed by Selected lon Recording (SIR): at m/z=917.88, corresponding to the [M+2 H]^2+ion obtained from either β32_33 or PMT; at m/z=961.42, corresponding to the [M+H]^+ion obtained from PMT-8a; and at m/z=869.48, corresponding to the [M+H]^+ion obtained from PMT-8b.
In order to evaluate whether compounds (βp and d-βp) are stable in blood or hydrolyzed by plasma peptidases, we set up a chromatographic assay to evaluate compound concentration after incubation in human plasma.
Blood was drawn by venipuncture in vacutainer containing EDTA as an anticoagulant.
Two different samples from healthy volunteers were used. Plasma was separated by centrifugation and immediately used for the experiments. Each compound was dissolved in 500 uL plasma at a final concentration of 0.2 mM, and split into two aliquots, one of which was immediately analyzed to assess the basal compound level; the other was incubated at 37° C. for 3 hours under gentle shaking. In order to perform chromatographic analysis the samples were treated with 3 volumes of acetonitrile containing 1% formic acid, and then extracted by using the Ostro™ pass-through sample preparation system to remove proteins and phospholipids. Samples were dried under vacuum and then resuspended in 100 uL of 0.1% formic acid containing 5% acetonitrile, then directly injected onto the chromatographic column.
Chromatographic analyses were performed on a Water Acquity H-Class UPLC system (Waters, Milford, MA, USA), including a quaternary solvent manager (QSM), a sample manager with a flow through needle system (FTN), a photodiode array detector (PDA) and a single-quadruple mass detector with electrospray ionization source (ACQUITY QDa). Analyses were performed on a reverse phase C18 column (75 mm×3.2 mm i.d., 2.5 μm particle size). The mobile phase was solvent A, 0.1% formic acid in water, and solvent B, 0.1% formic acid in acetonitrile. The flow rate was 0.5 mL/min, the column temperature was set at 25° C. and the elution was performed by linearly increasing the concentration of solvent B up to 70% in 7 minutes. Mass spectrometric detection was performed in the positive electrospray ionization mode, using nitrogen as the nebulizer gas. Analyses were performed in the Total lon Current (TIC) mode with a mass range of 100-1200 m/z. The capillary voltage was 0.8 kV, cone voltage 8 V, ion source temperature 120° C. and probe temperature 600° C. Quantification of each compound was performed by Selected lon Recording (SIR) at m/z 917.88, corresponding to the […]

[2] = test system: m·3243A>G mt-tRNA^Leu(UUR) mutant cybrids; test: Cell viability, Trypan blue dye exclusion, galactose vs glucose medium; type: cell-based, human; conditions: for viability of mutant cybrids vs non treated mutant cells: galactose medium
Protocol: For viability assessment, cells were plated in either glucose or galactose medium. The reason for this is that a viability phenotype can be appreciated in cells growing on galactose, which forces cells to rely on mitochondrial respiration, but not in cells growing on glucose. After 24 hours incubation, the number of viable cells in the galactose medium was normalized to the number of viable cells in glucose at the same time point, which represents the normal growth condition. Data are compared with the value of mutant cells incubated with vehicle only. Mean±SEM of at least three independent experiments is shown.
For viability assessment, cells were plated in either glucose or galactose medium. The reason for this is that a viability phenotype can be appreciated in cells growing on galactose, which forces cells to rely on mitochondrial respiration, but not in cells growing on glucose. After 24 hours incubation the number of viable cells in galactose medium was normalized to the number of viable cells in glucose (that represents the normal growth condition) at the same time point. Data are compared with the value of mutant cells incubated with vehicle only. Means±SEM of at least two independent experiments are shown.
Previously established osteosarcoma derived (143B.TK-) cybrid cell lines from patients, which bear either the m·3243A>G mutation in mt-tRNA^Leu(UUR) or the m·8344A>G mutation in mt-tRNA^Lys, and controls were used (generous gift from Dr Valeria Tiranti and Dr Valerio Carelli).
Cybrid cells were cultured in Dulbecco's modified Eagle's medium (DMEM), supplemented with 4.5 g/l d-glucose, 10% foetal bovine serum (FBS), 2 mM I-glutamine, 50 μg/ML uridine, 100 U/mL penicillin, and […] (referred to as glucose medium) in a humidified atmosphere of 95% air and 5% CO2 at 37° C. For cell viability experiments, cells were grown either in glucose medium or in glucose-free DMEM, supplemented with 5 mM galactose, […] sodium pyruvate, and 10% FBS (referred to as galactose medium). The reason for using the latter medium is that a pathological phenotype can be appreciated in cells growing on galactose, which forces cells to rely on mitochondrial respiration, but not in cells growing on glucose.
[…] Cells were switched in glucose or galactose and after 24 hours cell viability was measured by the Trypan blue dye exclusion assay. Cells were harvested with 0.25% trypsin and 0.2% EDTA, washed, suspended in PBS in the presence of Trypan blue solution (Sigma-Aldrich) at 1:1 ratio and counted using a hemocytometer. The number of viable cells in galactose medium was expressed as a percentage of the number of cells in glucose medium.
(§1) To evaluate the effect of the compounds on viability, cybrids were grown in glucose-free medium supplemented with galactose (galactose medium), a condition that both forces cells to rely on the mt respiratory chain for ATP synthesis and causes a significant growth reduction in the presence of mutations.
as §1, with “PMT and M-PMT” for “the compounds”

[3] = first experiment, plasma of two healthy volunteers, 37° C., 0.2 mM, 3 hours (FIG. 4A)
[4] = human, human plasma (EDTA) from healthy volunteers, first experiment, plasma of two healthy volunteers, 37° C., 0.2 mM, 3 hours (FIG. 4A)
[5] = second experiment, plasma of four healthy volunteers, 3 hours (FIG. 4B)

| peptide available after incubation in plasma [1, 3] | remaining at 3 h, 0.2 mM [1, 4] | remaining at 6 h, 0.2 mM ([1]; human, human plasma from healthy volunteers, second experiment, 6 h, read-out: peptide present after incubation in plasma) | peptide available after incubation in plasma [1, 5] | detectable degradation in plasma ([1]; second experiment, plasma of four healthy volunteers, up to 72 h) | degraded peptide after incubation in plasma ([1]; first experiment, plasma of two healthy volunteers, 37° C., 3 hours (FIG. 4A)) | metabolised at 3 h, 0.2 mM ([1]; human, human plasma (EDTA) from healthy volunteers, first experiment, plasma of two healthy volunteers, 37° C., 3 hours (FIG. 4A), read-out: degraded peptide after incubation in plasma) | metabolised at 6 h, 0.2 mM ([1]; human, human plasma from healthy volunteers, second experiment, 6 h, read-out: peptide degraded after incubation in plasma) | remaining at 1.5 h, 0.2 mM ([1]; human, human plasma from healthy volunteers, second experiment, plasma of four healthy volunteers, 1.5 h (FIG. 4B), read-out: starting amount present after incubation in plasma) | remaining at 3 h, 0.2 mM ([1]; human, human plasma from healthy volunteers, second experiment, plasma of four healthy volunteers, 3 hours (FIG. 4B)) | Compound | detectable degradation in plasma ([1]; first experiment, plasma of two healthy volunteers, 3 hours) | plasma stability compared with another peptide ([1]; human plasma, FIG. 4) | viability of mutant cybrids vs non treated mutant cells ([2]; 0.5 μM, 24 hours (FIG. 6)) | viability of mutant cybrids vs non treated mutant cells ([2]; 2 μM, 24 hours (FIG. 6)) | viability of mutant cybrids vs non treated mutant cells ([2]; 5 μM, 24 hours) | lower concentration improving viability with respect to PMT ([2]; m·3243A>G mutant cybrids, FIG. 6) |
| --- | --- | --- | --- | --- | --- | --- | --- | --- | --- | --- | --- | --- | --- | --- | --- | --- |
| 100% | 100% | > 50% | > 63% | did undergo detectable degradation |  |  |  |  |  | CC[C@@H](C)[C@@H](NC(=O)[C@@H](CC(C)C)NC(=O)[C@@H](C)NC(=O)[C@H](NC(=O)[C@@H](CCCNC(=N)N)NC(=O)[C@H]1CCCN1C(=O)[C@@H](CO)NC(=O)[C@@H](CC(C)C)NC(=O)[C@@H](Cc1ccccc1)NC(=O)[C@@H](CO)NC(=O)[C@@H](CCCCN)NC(=O)[C@H](N)CCCCN)[C@H](C)O)C(=O)N[C@H](CC(N)=O)C(=O)N[C@H](Cc1ccccc1)C(=O)N[C@H](CC(C)C)C(=O)N[C@@H](C(=O)O)C(C)C [PMT, d(K)d(K)d(S)d(F)d(L)d(S)d(P)d(R)d(T)d(A)d(L)d(I)d(N)d(F)d(L)d(V)] | does not undergo visible degradation; also recorded: did not undergo detectable degradation | consistently higher stability than the β32_33 peptide; also recorded: higher plasma stability than the β32_33 peptide at all time points; also recorded: slower degradation than the β32_33 peptide |  |  |  |  |
|  |  |  |  |  |  |  |  |  |  | FRFKKKSFLSPRTALINFLV (SITE 1 d-Phenylalanine; SITE 2 d-Arginine; SITE 3 d-Phenylalanine; SITE 4 d-Lysine; SITE 5 d-Lysine; SITE 6 d-Lysine; SITE 7 d-Serine; SITE 8 d-Phenylalanine; SITE 9 d-Leucine; SITE 10 d-Serine; SITE 11 d-Proline; SITE 12 d-Arginine; SITE 13 d-Threonine; SITE 14 d-Alanine; SITE 15 d-Leucine; SITE 16 d-Isoleucine; SITE 17 d-Asparagine; SITE 18 d-Phenylalanine; SITE 19 d-Leucine; SITE 20 d-Valine) [M-PMT] |  |  | significantly improves | significantly improved | significantly improved | 10 fold |
| 70% | 70% |  | 17% |  | at least 30% | 30% | 90% | > 85% | 17% | CC[C@H](C)[C@H](NC(=O)[C@H](CC(C)C)NC(=O)[C@H](C)NC(=O)[C@@H](NC(=O)[C@H](CCCNC(=N)N)NC(=O)[C@@H]1CCCN1C(=O)[C@H](CO)NC(=O)[C@H](CC(C)C)NC(=O)[C@H](Cc1ccccc1)NC(=O)[C@H](CO)NC(=O)[C@H](CCCCN)NC(=O)[C@@H](N)CCCCN)[C@@H](C)O)C(=O)N[C@@H](CC(N)=O)C(=O)N[C@@H](Cc1ccccc1)C(=O)N[C@@H](CC(C)C)C(=O)N[C@H](C(=O)O)C(C)C [β32_33, KKSFLSPRTALINFLV, reference compound] |  |  |  |  |  |  |
